Assay results reported in publication PMC3938192 (ACS chemical biology, 2013).
Where a chain is given by its changes, count along the chain named.

Legend:
Type in all cases: cell-based
[1] = target: T1, Pkd1-AS2 (M665A) (Mus musculus, UniProt Q62101, M665A); experiment: Pkd1-AS2 autophosphorylation in transfected HEK 293T cells; conditions: 1 µM
T1 sequence (Q62101 1-918 M665A): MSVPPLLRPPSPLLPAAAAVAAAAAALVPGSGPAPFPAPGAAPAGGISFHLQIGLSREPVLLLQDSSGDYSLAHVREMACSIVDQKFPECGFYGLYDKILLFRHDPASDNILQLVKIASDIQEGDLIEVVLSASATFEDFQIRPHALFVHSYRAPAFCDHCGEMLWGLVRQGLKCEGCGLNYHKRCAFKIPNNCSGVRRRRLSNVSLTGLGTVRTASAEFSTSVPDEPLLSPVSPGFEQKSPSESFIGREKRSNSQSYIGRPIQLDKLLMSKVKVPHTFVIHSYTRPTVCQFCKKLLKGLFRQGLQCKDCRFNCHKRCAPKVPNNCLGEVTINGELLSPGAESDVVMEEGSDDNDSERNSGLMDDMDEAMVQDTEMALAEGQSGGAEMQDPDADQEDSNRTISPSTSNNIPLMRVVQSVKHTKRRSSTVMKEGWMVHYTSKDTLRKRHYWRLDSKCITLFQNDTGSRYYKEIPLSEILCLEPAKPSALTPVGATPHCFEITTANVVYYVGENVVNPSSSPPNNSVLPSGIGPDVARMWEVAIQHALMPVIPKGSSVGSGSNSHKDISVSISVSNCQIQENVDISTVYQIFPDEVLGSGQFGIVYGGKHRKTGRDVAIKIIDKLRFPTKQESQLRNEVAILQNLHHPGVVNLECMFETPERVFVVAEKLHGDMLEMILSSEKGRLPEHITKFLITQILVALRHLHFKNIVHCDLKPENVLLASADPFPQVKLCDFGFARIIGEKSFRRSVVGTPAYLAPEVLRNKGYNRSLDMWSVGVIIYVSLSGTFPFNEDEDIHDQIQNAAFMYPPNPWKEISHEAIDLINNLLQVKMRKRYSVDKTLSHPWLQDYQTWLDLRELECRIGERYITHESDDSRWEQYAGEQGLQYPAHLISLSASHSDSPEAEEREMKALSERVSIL

[2] = target: T2, Pkd1-WT (Mus musculus, UniProt Q62101); experiment: Pkd1-WT autophosphorylation in transfected HEK 293T cells; conditions: 1 µM
T2 sequence (Q62101 1-918): T1 sequence (Q62101 1-918 M665A) with A665M

[3] = target: T3, Venus-Pkd1-WT (Mus musculus, UniProt Q62101); experiment: Puncta formation of Venus-Pkd1-WT in neurons; conditions: 1 µM, one hour of inhibitor treatment
T3 sequence (Q62101 1-918): T1 sequence (Q62101 1-918 M665A) with A665M

[4] = target: T4, Venus-Pkd1-AS2 (Mus musculus, UniProt Q62101, M665A); experiment: Puncta formation of Venus-Pkd1-AS2 in neurons; conditions: 1 µM, one hour of inhibitor treatment
T4 sequence (Q62101 1-918 M665A): T1 sequence (Q62101 1-918 M665A)

## CC(C)(C)n1nc(-c2cccc3ccccc23)c2c(N)ncnc21 [1NA-PP1]
[1]
  effect on autophosphorylation by Pkd1-AS2: completely abrogates autophosphorylation
[2]
  effect on autophosphorylation by Pkd1-WT: but not the wild type kinase
[3]
  puncta formation, Venus-Pkd1-WT neurons: unaffected
[4]
  puncta formation, Venus-Pkd1-AS2 neurons: forming discrete puncta
